Results on 17 compounds are retold here after ChEMBL document CHEMBL3407465, “Interaction of human organic anion transporter polypeptides 1B1 and 1B3 with antineoplastic compounds” (Eur J Med Chem, 2015).

Data set [1] has as its target T1, Solute carrier organic anion transporter family member 1B3 (Homo sapiens, UniProt Q9NPD5).
T1 sequence (Q9NPD5 whole entry): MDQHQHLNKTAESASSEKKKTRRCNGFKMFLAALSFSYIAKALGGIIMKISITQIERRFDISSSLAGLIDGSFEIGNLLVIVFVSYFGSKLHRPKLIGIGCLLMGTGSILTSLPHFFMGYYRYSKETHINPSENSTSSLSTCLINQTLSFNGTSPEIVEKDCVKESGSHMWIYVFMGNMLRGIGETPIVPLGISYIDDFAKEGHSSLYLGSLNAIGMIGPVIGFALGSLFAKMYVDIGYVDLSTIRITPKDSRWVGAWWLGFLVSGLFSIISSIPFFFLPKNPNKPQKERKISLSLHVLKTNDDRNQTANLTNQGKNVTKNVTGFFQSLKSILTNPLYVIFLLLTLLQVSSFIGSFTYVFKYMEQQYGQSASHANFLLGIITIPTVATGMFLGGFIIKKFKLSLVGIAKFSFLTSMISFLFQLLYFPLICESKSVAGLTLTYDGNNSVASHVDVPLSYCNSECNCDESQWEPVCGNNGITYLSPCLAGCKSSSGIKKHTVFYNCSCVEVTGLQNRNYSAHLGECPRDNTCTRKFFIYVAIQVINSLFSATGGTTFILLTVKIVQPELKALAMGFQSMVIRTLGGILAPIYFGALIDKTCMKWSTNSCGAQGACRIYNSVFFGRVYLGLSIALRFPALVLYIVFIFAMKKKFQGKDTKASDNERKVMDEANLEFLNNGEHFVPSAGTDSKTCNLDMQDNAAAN
Kind of data set: Inhibition of human OATP1B3-mediated [3H]CCK-8 at 100 uM after 5 mins relative to control. It counts as ADME.

For data set [2], the target named is T1, Solute carrier organic anion transporter family member 1B3. Briefly: Inhibition of human OATP1B3-mediated [3H]CCK-8 after 5 mins by Dixon plot method. Format: ADME.
The target of data set [3] is T2, Solute carrier organic anion transporter family member 1B1 (Homo sapiens, UniProt Q9Y6L6).
T2 sequence (Q9Y6L6 whole entry): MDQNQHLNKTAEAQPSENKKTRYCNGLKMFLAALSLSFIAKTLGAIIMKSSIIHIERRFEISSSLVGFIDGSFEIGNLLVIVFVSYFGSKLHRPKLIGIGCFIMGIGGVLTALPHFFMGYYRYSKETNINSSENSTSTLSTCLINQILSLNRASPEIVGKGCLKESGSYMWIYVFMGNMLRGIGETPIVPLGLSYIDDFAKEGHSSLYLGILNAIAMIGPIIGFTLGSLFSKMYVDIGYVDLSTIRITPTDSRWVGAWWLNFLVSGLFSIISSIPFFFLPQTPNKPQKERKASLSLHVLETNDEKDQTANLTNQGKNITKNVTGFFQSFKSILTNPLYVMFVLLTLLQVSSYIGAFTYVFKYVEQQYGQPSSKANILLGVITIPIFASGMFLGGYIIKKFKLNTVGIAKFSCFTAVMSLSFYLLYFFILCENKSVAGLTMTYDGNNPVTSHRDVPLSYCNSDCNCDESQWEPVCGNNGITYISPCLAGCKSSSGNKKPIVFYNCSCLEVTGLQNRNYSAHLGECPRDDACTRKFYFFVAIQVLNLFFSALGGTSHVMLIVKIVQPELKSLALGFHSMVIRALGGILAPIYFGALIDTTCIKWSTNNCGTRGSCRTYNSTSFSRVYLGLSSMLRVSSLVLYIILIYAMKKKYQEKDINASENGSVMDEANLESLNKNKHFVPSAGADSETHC
Briefly: Stimulation of human OATP1B1-mediated [3H]estrone 3-sulfate at 100 uM after 5 mins relative to control. It counts as ADME.

Data set [4] has as its target T1, Solute carrier organic anion transporter family member 1B3. Kind of data set: Stimulation of human OATP1B3-mediated [3H]CCK-8 at 100 uM after 5 mins relative to control. Format: ADME.
The target in data set [5] is T2, Solute carrier organic anion transporter family member 1B1. Kind of data set: Inhibition of human OATP1B1-mediated [3H]estrone 3-sulfate at 100 uM after 5 mins relative to control. It counts as ADME.
Data set [6] has as its target T3, OATP1B3 (Homo sapiens, UniProt Q9NPD5).
T3 sequence (Q9NPD5 whole entry): T1 sequence (Q9NPD5 whole entry)
Kind of data set: Inhibition of OATP1B3 (unknown origin)-mediated sodium fluorescein expressed in CHO cells at 10 uM. Particulars: CHO cells expressing OATP1B3, probe sodium fluorescein. It counts as ADME, cell-based.

The target in data set [7] is T2, Solute carrier organic anion transporter family member 1B1. Kind of data set: Inhibition of human OATP1B1-mediated [3H]estrone 3-sulfate at after 5 mins by Dixon plot method. It counts as ADME.

As to `Cn1c(CCCC(=O)O)nc2cc(N(CCCl)CCCl)ccc21` [BENDAMUSTINE], the “inhibition (INH)” value in data set [1] is 48.8%.

In data set [2], `O=C(O)CCCc1ccc(N(CCCl)CCCl)cc1` [CHLORAMBUCIL] yielded an IC50 of 80.7 µM and a Ki of 37.4 µM. In data set [3], the Activity is 18.8%. Further, the “inhibition (INH)” value in data set [1] turned out to be 66%.

For the compound `Nc1nc(Cl)nc2c1ncn2[C@H]1C[C@H](O)[C@@H](CO)O1` [CLADRIBINE], the Activity came out at 10% in data set [4] and 15.9% in data set [3].

`O=P1(N(CCCl)CCCl)NCCCO1` (centres undefined) [CYCLOPHOSPHAMIDE ANHYDROUS]: the Activity in data set [4] was 8.7%; in data set [3] it was 5.6%.

Compound `Nc1ccn([C@@H]2O[C@H](CO)[C@@H](O)[C@@H]2O)c(=O)n1` [CYTARABINE] registered an Activity in data set [4] of 17.7%.

For `COc1cccc2c1C(=O)c1c(O)c3c(c(O)c1C2=O)C[C@@](O)(C(=O)CO)C[C@@H]3O[C@H]1C[C@H](N)[C@H](O)[C@H](C)O1` [DOXORUBICIN], the “inhibition (INH)” value in data set [5] was 12%; in data set [1], 53.6%.

In data set [4], `Nc1nc(F)nc2c1ncn2[C@@H]1O[C@H](CO)[C@@H](O)[C@@H]1O` [FLUDARABINE] showed an Activity of 12%.

In data set [4], `Nc1ccn([C@@H]2O[C@H](CO)[C@@H](O)C2(F)F)c(=O)n1` [GEMCITABINE] returned an Activity of 11.1%.

For `O=P1(NCCCl)OCCCN1CCCl` (centres undefined) [IFOSFAMIDE], the Activity in data set [3] is 7.4%.

As to `CCc1c2c(nc3ccc(OC(=O)N4CCC(N5CCCCC5)CC4)cc13)-c1cc3c(c(=O)n1C2)COC(=O)[C@]3(O)CC` [IRINOTECAN], the Activity in data set [3] came to 93.3%. Also, the “inhibition (INH)” value in data set [1] is 34.3%.

For the compound `CN(Cc1cnc2nc(N)nc(N)c2n1)c1ccc(C(=O)N[C@@H](CCC(=O)O)C(=O)O)cc1` [METHOTREXATE], in data set [4], the Activity amounted to 12%.

Compound `O=C1c2c(O)ccc(O)c2C(=O)c2c(NCCNCCO)ccc(NCCNCCO)c21` [MITOXANTRONE] returned an IC50 in data set [2] of 3.39 µM. Further, the Ki in data set [2] came out at 3.1 µM. Further, the figures for the “inhibition (INH)” value in data set [5] and in data set [1] were 18.9% and 84.4%, respectively.

In data set [6], `CC(=O)O[C@H]1C(=O)[C@@]2(C)[C@H]([C@H](OC(=O)c3ccccc3)[C@]3(O)C[C@H](OC(=O)[C@H](O)[C@@H](NC(=O)c4ccccc4)c4ccccc4)C(C)=C1C3(C)C)[C@]1(OC(C)=O)CO[C@@H]1C[C@@H]2O` [PACLITAXEL] registered an inhibition at 10 µM of 52.9%. For the same compound, in data set [2], half-maximal inhibition (IC50) was put at 0.26 µM and the Ki amounted to 1.8 µM. The “inhibition (INH)” value in data set [1] came out at 94.4%.

Turning to `C[C@]12C=CC(=O)C=C1CC[C@@H]1[C@@H]2C(=O)C[C@@]2(C)[C@H]1CC[C@]2(O)C(=O)CO` [PREDNISONE], the results for the “inhibition (INH)” value in data set [5] and in data set [1] were 9.8% and 12.5%, respectively.

Consider `S=P(N1CC1)(N1CC1)N1CC1` [THIOTEPA], for which the Activity in data set [3] is on record as 11.9%.

For the compound `CC[C@]1(O)C[C@@H]2CN(CCc3c([nH]c4ccccc34)[C@@](C(=O)OC)(c3cc4c(cc3OC)N(C)[C@H]3[C@@](O)(C(=O)OC)[C@H](OC(C)=O)[C@]5(CC)C=CCN6CC[C@]43[C@@H]65)C2)C1` [VINBLASTINE], the IC50 in data set [2] was 43.5 µM; in data set [7], 46.8 µM. Further, the values for the Ki in data set [2] and in data set [7] were 18.6 µM and 10.2 µM, respectively. Moreover, the “inhibition (INH)” value is listed as 64.1% in data set [5] and 81.5% in data set [1].

For `CC[C@]1(O)C[C@H]2CN(CCc3c([nH]c4ccccc34)[C@@](C(=O)OC)(c3cc4c(cc3OC)N(C=O)[C@H]3[C@@](O)(C(=O)OC)[C@H](OC(C)=O)[C@]5(CC)C=CCN6CC[C@]43[C@@H]65)C2)C1` [VINCRISTINE], in data set [2], the IC50 stood at 36.8 µM and the Ki turned out to be 17.6 µM. In data set [5], the “inhibition (INH)” value is 28.1%. The “inhibition (INH)” value in data set [1] is 65.1%.
